The record followed here is patent US12233161B1, “Lipids and lipid nanoparticle formulations” (LONGUIDE BIOPHARMA CORPORATION, priority 2024, dated 2025).

One data set concerns mice. The experiment in a line: In vivo delivery of FLuc-mRNA lipid nanoparticles in mice, in vivo imaging (IVIS). In a few lines:
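Mice (n=3) received about 75 μL FLuc-mRNA LNP per mouse intramuscularly (rectus femoris), intravenously (tail vein), intraperitoneally or subcutaneously (back). After injection, D-luciferin (200 μL, 15 mg/mL) was given i.p. 10-15 min before IVIS imaging.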

Data set [1] in a line: Particle size and PDI of nucleic acid lipid nanoparticle preparations by dynamic light scattering. The data set is classed as physicochemical. The protocol:
The 7.5 μL nucleic acid lipid nanoparticle solution (containing approximately 0.04 mg/mL mRNA) was taken and added with 200 μL ultrapure water, mixed by gentle blowing using a pipette tip, and the particle size of the nanopreparation was detected by dynamic lightscattering (DLS) using a Malvern Dynamic Light Scattering Instrument (Malvern Instruments Ltd., ZEN3700, UK).
27.5 μL nucleic acid lipid nanoparticle solution (containing about 0.04 mg/mL mRNA) was taken and added with 200 μL ultrapure water. A pipette tip was used to gently blow the sample and mix well. The particle size of the nanopreparation was detected by Malvern Dynamic Light Scattering Instrument (Malvern Instruments Ltd., ZEN3700, UK). After the detection, the sample was recovered to an EP tube, and 600 μL of ultrapure water was added, gently blown with a pipette tip, and the potential of the nanopreparation was measured by a Malvern particle size meter.

Setting [2] is: DMG-PEG2000:DSPC:Chol:Lipid 1.00:11.50:22.50:65.00, N/P 65, IV, liver.
The mark [3] stands for this setting: DMG-PEG2000:DSPC:Chol:Lipid 1.00:11.50:22.50:65.00, N/P 65, IV, lung.
Setting [4] is: DMG-PEG2000:DSPC:Chol:Lipid 1.00:11.50:22.50:65.00, N/P 65, IV, spleen.
The mark [5] stands for this setting: DMG-PEG2000:DSPC:Chol:Lipid 2.50:11.50:51.00:35.00, N/P 50, IV, liver.
Setting [6] is: DMG-PEG2000:DSPC:Chol:Lipid 2.50:11.50:51.00:35.00, N/P 50, IV, lung.
[7] abbreviates: DMG-PEG2000:DSPC:Chol:Lipid 2.50:11.50:51.00:35.00, N/P 50, IV, spleen.
Where [8] appears, read: DMG-PEG2000:DSPC:Chol:Lipid 1.00:11.50:22.50:65.00, N/P 65, mRNA LNP.
[9] abbreviates: DMG-PEG2000:DSPC:Chol:Lipid 1.00:16.00:48.00:35.00, N/P 35, mRNA LNP.
[10] abbreviates: DMG-PEG2000:DSPC:Chol:Lipid 1.00:16.00:63.00:20.00, N/P 35, mRNA LNP.
[11] abbreviates: DMG-PEG2000:DSPC:Chol:Lipid 2.50:11.50:51.00:35.00, N/P 50, mRNA LNP.
Setting [12] is: DMG-PEG2000:DSPC:Chol:compound 1.00:10.00:33.00:56.00, N/P 42.
Where [13] appears, read: DMG-PEG2000:DSPC:Chol:compound 1.40:11.15:38.95:48.50, N/P 30.
Setting [14] is: IM, DMG-PEG2000:DSPC:Chol:compound 1.40:11.15:38.95:48.50, N/P 20, Fluc-mRNA.
The mark [15] stands for this setting: DMG-PEG2000:DSPC:Chol:compound 1.40:11.15:38.95:48.50, N/P 20.

`CCCCCCCCCCNC(=O)C(O)CN(CCCN(C)CCCN(CC(O)C(=O)NCCCCCCCCCC)CC(O)C(=O)NCCCCCCCCCC)CC(O)C(=O)NCCCCCCCCCC` (centres unmarked) [Compound L0265]: the IVIS with mice (DMG-PEG2000:DSPC:Chol:Lipid 1.00:11.50:22.50:65.00, N/P 65, IV, body) was 1.59 × 10^8; with mice (setting [2]), 7.76 × 10^6; in the data set on mice (setting [3]) it was 1.00 × 10^9; with mice (setting [4]), 1.53 × 10^7; with mice (DMG-PEG2000:DSPC:Chol:Lipid 1.00:16.00:48.00:35.00, N/P 35, IM, whole body scan), 6.15 × 10^7; with mice (DMG-PEG2000:DSPC:Chol:Lipid 1.00:16.00:63.00:20.00, N/P 35, IM, whole body scan), 6.47 × 10^6. Also, the IVIS was 4.45 × 10^7 with mice (DMG-PEG2000:DSPC:Chol:Lipid 2.50:11.50:51.00:35.00, N/P 50, IV, body); 6.87 × 10^6 with mice (setting [5]); 6.51 × 10^6 in the data set with mice (setting [6]); 1.88 × 10^7 in the data set with mice (setting [7]); 2.04E+08 in the data set with mice (IV, body, DMG-PEG2000:DSPC:Chol:compound 1.00:10.00:33.00:56.00, N/P 42, Fluc-mRNA); 2.18E+06 in the data set with mice (IV, liver, DMG-PEG2000:DSPC:Chol:compound 1.00:10.00:33.00:56.00, N/P 42, Fluc-mRNA). Moreover, the IVIS turned out to be 3.94E+08 in the data set on mice (IV, lung, DMG-PEG2000:DSPC:Chol:compound 1.00:10.00:33.00:56.00, N/P 42, Fluc-mRNA) and 4.11E+06 with mice (IV, spleen, DMG-PEG2000:DSPC:Chol:compound 1.00:10.00:33.00:56.00, N/P 42, Fluc-mRNA). The “% of organ targeting” value in the data set with mice (setting [2]) is listed as 0.76%; in the data set on mice (setting [3]) it was 97.75%; with mice (setting [4]), 1.50%; with mice (setting [5]), 21.35%; with mice (setting [6]), 20.23%; in the data set with mice (setting [7]) it was 58.42%. The “% of organ targeting” value worked out at 0.55% with mice (IV, liver, DMG-PEG2000:DSPC:Chol:compound 1.00:10.00:33.00:56.00, N/P 42); 98.43% in the data set on mice (IV, lung, DMG-PEG2000:DSPC:Chol:compound 1.00:10.00:33.00:56.00, N/P 42); 1.03% in the data set with mice (IV, spleen, DMG-PEG2000:DSPC:Chol:compound 1.00:10.00:33.00:56.00, N/P 42). Besides, the “in vivo delivery efficiency as compared to the benchmark compound SM102” value in the data set with mice (certain formulations, Table 2) is “superior in vivo delivery efficiency”. The “tissue-targeting specificity (lung vs spleen depending on molar percentage of compound)” value in the data set with mice (certain formulations, Table 2) was “strong tissue-targeting specificity”. For the same molecule, the PDI came to 0.10 ± 0.02 in data set [1] (setting [8]); 0.11 ± 0.02 in data set [1] (setting [9]); 0.11 ± 0.02 in data set [1] (setting [10]); 0.12 ± 0.01 in data set [1] (setting [11]); 0.08 in data set [1] (setting [12]). Also, the Particle size in data set [1] (setting [8]) was determined as 87.42 ± 0.32 nm; in data set [1] (setting [9]), 115.10 ± 0.87 nm; in data set [1] (setting [10]), 135.03 ± 0.67 nm; in data set [1] (setting [11]), 122.50 ± 1.15 nm. Also, in data set [1] (setting [12]), the “Particle size (nm)” value was determined as 101.60 nm.
For the molecule `CC/C=C\CCOCOCCCCCCOC(=O)C(O)CN(CCN(C)CCN(CC(O)C(=O)OCCCCCCOCOCC/C=C\CC)CC(O)C(=O)OCCCCCCOCOCC/C=C\CC)CC(O)C(=O)OCCCCCCOCOCC/C=C\CC` (centres unmarked) [Compound L0334], the IVIS in the data set on mice (IM, DMG-PEG2000:DSPC:Chol:compound 1.40:11.15:38.95:48.50, N/P 30, Fluc-mRNA) worked out at 6.25E+05; in the data set on mice (IV, body, DMG-PEG2000:DSPC:Chol:compound 1.40:11.15:38.95:48.50, N/P 30, Fluc-mRNA), 5.29E+08; in the data set on mice (IV, liver, DMG-PEG2000:DSPC:Chol:compound 1.40:11.15:38.95:48.50, N/P 30, Fluc-mRNA), 1.01E+08; in the data set on mice (IV, lung, DMG-PEG2000:DSPC:Chol:compound 1.40:11.15:38.95:48.50, N/P 30, Fluc-mRNA) it was 1.22E+07; with mice (IV, spleen, DMG-PEG2000:DSPC:Chol:compound 1.40:11.15:38.95:48.50, N/P 30, Fluc-mRNA) it was 6.35E+07. The “% of organ targeting” value with mice (IV, liver, DMG-PEG2000:DSPC:Chol:compound 1.40:11.15:38.95:48.50, N/P 30) was 57.03%; with mice (IV, lung, DMG-PEG2000:DSPC:Chol:compound 1.40:11.15:38.95:48.50, N/P 30) it was 6.95%; with mice (IV, spleen, DMG-PEG2000:DSPC:Chol:compound 1.40:11.15:38.95:48.50, N/P 30), 36.03%. In data set [1] (setting [13]), this molecule showed a PDI of 0.06. For the same molecule, in data set [1] (setting [13]), the “Particle size (nm)” value is recorded as 146.13 nm.
In the case of `CCCCCCOCOCCCCCCOC(=O)C(O)CN(CCOCCN(CC(O)C(=O)OCCCCCCOCOCCCCCC)CC(O)C(=O)OCCCCCCOCOCCCCCC)CC(O)C(=O)OCCCCCCOCOCCCCCC` (centres unmarked) [Compound L0330], the IVIS with mice (setting [14]) amounted to 1.35E+06; in the data set with mice (IV, body, DMG-PEG2000:DSPC:Chol:compound 1.40:11.15:38.95:48.50, N/P 20, Fluc-mRNA), 2.05E+06; with mice (IV, liver, DMG-PEG2000:DSPC:Chol:compound 1.40:11.15:38.95:48.50, N/P 20, Fluc-mRNA), 2.90E+05; in the data set with mice (IV, lung, DMG-PEG2000:DSPC:Chol:compound 1.40:11.15:38.95:48.50, N/P 20, Fluc-mRNA), 4.37E+04; in the data set with mice (IV, spleen, DMG-PEG2000:DSPC:Chol:compound 1.40:11.15:38.95:48.50, N/P 20, Fluc-mRNA), 6.43E+05. Also, the “% of organ targeting” value in the data set with mice (IV, liver, DMG-PEG2000:DSPC:Chol:compound 1.40:11.15:38.95:48.50, N/P 20) amounted to 29.70%; in the data set with mice (IV, lung, DMG-PEG2000:DSPC:Chol:compound 1.40:11.15:38.95:48.50, N/P 20) it was 4.48%; in the data set on mice (IV, spleen, DMG-PEG2000:DSPC:Chol:compound 1.40:11.15:38.95:48.50, N/P 20), 65.82%. For the same molecule, the PDI in data set [1] (setting [15]) is on record as 0.10. In addition, the “Particle size (nm)” value in data set [1] (setting [15]) is given as 145.77 nm.
For the molecule `CCCCCCCCCCNC(=O)C(O)CN(CCOCCOCCN(CC(O)C(=O)NCCCCCCCCCC)CC(O)C(=O)NCCCCCCCCCC)CC(O)C(=O)NCCCCCCCCCC` (centres unmarked) [Compound L0325], the IVIS in the data set on mice (setting [14]) is on record as 5.09E+06. In the data set with mice (IV, organ not given, DMG-PEG2000:DSPC:Chol:compound 1.40:11.15:38.95:48.50, N/P 20, Fluc-mRNA), this molecule displayed an IVIS of 1.95E+07. Moreover, in data set [1] (setting [15]), the PDI was 0.12 and the “Particle size (nm)” value is listed as 94.88 nm.
